pIC50: −log10 of the molar value. Structures can show the parent of a compound that is named as a salt.
What was measured:
[1] = system: L6; experiment: Cytotoxicity against rat L6 cells after 72 hrs; type: cell-based
[2] = system: Plasmodium falciparum; experiment: Antiplasmodial activity after 48 hrs against Plasmodium falciparum K1 in human erythrocytes; type: functional, organism-based
[3] = Plasmodium falciparum, K1, 48 h

SMILES	pIC50 ([1]; Rattus norvegicus, L6, 72 h)	pIC50 [2, 3]	pIC50 ([1]; l6)	pIC50 [2]
CC(C)=C/C=C1/OC(=O)[C@@]2(CC=C(C)C)C[C@H](CC=C(C)C)[C@@](C)(CCC=C(C)C)[C@H](C(=O)C(C)C)C(=O)[C@@]12O	4.44	5.42		
CC(C)=CCC[C@]1(C)[C@@H](CC=C(C)C)C[C@]2(CC=C(C)C)C(=O)C(C)(CC=C(C)C)C(=O)[C@@]1(C(=O)C(C)C)C2=O (stereo not given in full)		< 4.57		
COC1=C(CC=C(C)C)C(=O)[C@@]2(C(=O)C(C)C)C(=O)[C@]1(CC=C(C)C)C[C@H](CC=C(C)C)[C@@]2(C)CCC=C(C)C		5.11		
CC(=O)C1=C(O)C=C2Oc3c(C(C)=O)c(O)c(C)c(O)c3C2(C)C1=O (stereo not given)		4.79		
CC(C)CCC[C@]1(C)[C@@H](CCC(C)C)C[C@@]2(CCC(C)C)C(=O)[C@]1(C(=O)C(C)C)C(=O)C(CCC(C)C)=C2O [OCTAHYDROHYPERFORIN DICYCLOHEXYLAMMONIUM SALT]			5.51	5.85
CC(C)=CCC[C@]1(C)[C@@H](CC=C(C)C)C[C@@]2(CC=C(C)C)C(=O)[C@]1(C(=O)C(C)C)C(=O)C1=C2OC(C)(C)C=C1 [DEHYDROHYPERFORIN]		5.07		
CC(C)=CCC[C@]1(C)[C@@H](CC=C(C)C)C[C@]23CC(C(C)(C)O)OC2=C(CC=C(C)C)C(=O)[C@@]1(C(=O)C(C)C)C3=O (stereo not given in full) [FUROHYPERFORIN]	4.79	5.77		
COc1cc(C(=O)OC2=C(CC=C(C)C)C(=O)[C@@]3(C(=O)C(C)C)C(=O)[C@]2(CC=C(C)C)C[C@H](CC=C(C)C)[C@@]3(C)CCC=C(C)C)cc(OC)c1OC [HYPERFORINTRIMETHOXYBENZOATE]		< 4.57		
CC(C)=CCC[C@]1(C)[C@@H](CC=C(C)C)C[C@]2(CC=C(C)C)C(=O)[C@@](O)(CC=C(C)C)C(=O)[C@@]1(C(=O)C(C)C)C2=O	4.71	6.22		
CC(C)=CCC[C@]1(C)[C@@H](CC=C(C)C)C[C@@]2(CC=C(C)C)C(=O)[C@]1(C(=O)C(C)C)C(=O)C(CC=C(C)C)=C2OC(=O)c1cccnc1 [HYPERFORINNICOTINATE]	4.62	5.32		
CC(C)=CCC[C@]1(C)[C@@H](CC=C(C)C)C[C@]2(CC=C(C)C)C(=O)[C@@]3(CC=C(C)C)O[C@@]2(O)[C@]1(C(=O)C(C)C)C3=O [HYPERFORINHEMIACETAL]	4.79	5.70		
CC(=O)C1=C(O)C=C2Oc3c(C(C)=O)c(O)c(C)c(O)c3[C@@]2(C)C1=O [(+)-USNIC ACID]		4.82		
CC(C)=CCC[C@]1(C)[C@@H](CC=C(C)C)C[C@]2(CC=C(C)C)C(=O)C(CC=C(C)C)=C(O)[C@@]1(C(=O)C(C)C)C2=O [listing 1 of 2 here]	5.66	5.82		
CC(C)CCC[C@]1(C)[C@@H](CCC(C)C)C[C@@]2(CCC(C)C)C(=O)[C@]1(C(=O)C(C)C)C(=O)C(CCC(C)C)=C2O [OCTAHYDROHYPERFORIN]	5.67	5.57		
CC(C)=CCC[C@]1(C)[C@@H](CC=C(C)C)C[C@]2(CC=C(C)C)C(=O)C(Cl)(CC=C(C)C)C(=O)[C@@]1(C(=O)C(C)C)C2=O (stereo not given in full)		5.17		
CC(C)=CCC[C@]1(C)[C@@H](CC=C(C)C)C[C@]2(CC=C(C)C)C(=O)C(CC=C(C)C)=C(O)[C@@]1(C(=O)C(C)C)C2=O [listing 2 of 2 here]			5.48	5.68

Reference: ChEMBL document CHEMBL1144599, “In vitro antimalarial activity of hyperforin, a prenylated acylphloroglucinol. A structure-activity study” (Bioorg Med Chem Lett, 2007)
